The text below walks through data of patent US20100041892A1, “Therapeutic agent for diabetes” (priority 2005, published 2010).

Molecules are shown by their SMILES.

For orientation: melting point means the temperature of the solid-liquid transition. The compound `COCCOc1ccc(/C=C/C(=O)NS(=O)(=O)c2ccc(F)cc2)c(Oc2ncc(C(F)(F)F)cc2Cl)c1` [Example 237, (2E)-3-[2-{[3-chloro-5-(trifluoromethyl)pyridin-2-yl]oxy}-4-(2-methoxyethoxy)phenyl]-N-[(4-fluorophenyl)sulfonyl]acrylamide] returned a melting point of 183 to 184 °C.
The figure for `CCCCCS(=O)(=O)NC(=O)/C=C/c1cc(OCC2(C)COC2)nn1Cc1ccc(C(F)(F)F)cc1Cl` [Example 113, (2E)-3-{1-[2-chloro-4-(trifluoromethyl)benzyl]-3-[(3-methyloxetan-3-yl)methoxy]-1H-pyrazol-5-yl}-N-(pentylsulfonyl)acrylamide] is 144 to 147 °C.
Take `C/C(=C\c1ccc(OC(C)C)cc1Oc1ncc(C(F)(F)F)cc1Cl)C(=O)NS(=O)(=O)NCCOC(C)C` [Example 222, (2E)-3-(2-{[3-chloro-5-(trifluoromethyl)pyridin-2-yl]oxy}-4-isopropoxyphenyl)-N-{[(2-isopropoxyethyl)amino]sulfonyl}-2-methylacrylamide]: the melting point lay within 137.5 to 137.7 °C.
With `CCCCCS(=O)(=O)NC(=O)/C=C/c1ccc(OCCCOCC2CC2)cc1Oc1ncc(C(F)(F)F)cc1Cl` [Example 259, (2E)-3-{2-{[3-chloro-5-(trifluoromethyl)pyridin-2-yl]oxy}-4-[3-(cyclopropylmethoxy)propoxy]phenyl}-N-(pentylsulfonyl)acrylamide] the figure was 124 to 125 °C; with `CCCCCS(=O)(=O)NC(=O)/C=C/c1cc(OCCCC)nn1Cc1ccc(C(F)(F)F)cc1` [Example 103, (2E)-3-{3-butoxy-1-[4-(trifluoromethyl)benzyl]-1H-pyrazol-5-yl}-N-(pentylsulfonyl)acrylamide], 159 to 160 °C; with `CCCCCS(=O)(=O)NC(=O)CCc1ccc(OCCOC)cc1Oc1ncc(Cl)cc1Cl` [Example 171, 3-[2-[(3,5-dichloropyridin-2-yl)oxy]-4-(2-methoxyethoxy)phenyl]-N-(pentylsulfonyl)propanamide], 92.2 to 93.6 °C.
The figure for `COCCOc1ccc(COC(=O)NS(=O)(=O)CCC(C)C)c(Oc2ncc(C(F)(F)F)cc2Cl)c1` [Example 59, 2-{[3-chloro-5-(trifluoromethyl)pyridin-2-yl]oxy}-4-(2-methoxyethoxy)benzyl [(3-methylbutyl)sulfonyl]carbamate] is 122 to 124 °C; for `CCCCCNS(=O)(=O)NC(=O)OCc1ccc(OCCOC)cc1Oc1ncc(C(F)(F)F)cc1Cl` [Example 61, 2-{[3-chloro-5-(trifluoromethyl)pyridin-2-yl]oxy}-4-(2-methoxyethoxy)benzyl [(pentylamino)sulfonyl]carbamate] it is 153 to 155 °C; for `CCCCCS(=O)(=O)NC(=O)/C=C/c1ccc(OCCOC)cc1Oc1ncc([N+](=O)[O-])cc1C` [Example 185, (2E)-3-{4-(2-methoxyethoxy)-2-[(3-methyl-5-nitropyridin-2-yl)oxy]phenyl}-N-(pentylsulfonyl)acrylamide] it is 148 to 150.3 °C.
The figure for `COCCOc1ccc(COC(=O)NS(=O)(=O)NCC2CC2)c(Oc2ncc(C(F)(F)F)cc2Cl)c1` [Example 67, 2-{[3-chloro-5-(trifluoromethyl)pyridin-2-yl]oxy}-4-(2-methoxyethoxy)benzyl {[(cyclopropylmethyl)amino]sulfonyl}carbamate] is 150 to 150.5 °C; for `CC(C)Oc1cc(CCC(=O)NS(=O)(=O)CCCc2ccccc2)n(Cc2ccc(Cl)cc2Cl)n1` [Example 91, 3-[1-(2,4-dichlorobenzyl)-3-isopropoxy-1H-pyrazol-5-yl]-N-[(3-phenylpropyl)sulfonyl]propanamide] it is 132 to 134 °C; for `CCCCCS(=O)(=O)NC(=O)CCc1cc(C(C)(C)C)nn1Cc1ccc(C(F)(F)F)cc1Cl` [Example 122, 3-{3-tert-butyl-1-[2-chloro-4-(trifluoromethyl)benzyl]-1H-pyrazol-5-yl}-N-(pentylsulfonyl)propanamide] it is 136 to 137 °C.
In turn, `CCCCCS(=O)(=O)NC(=O)/C=C/c1ccc(OCCOC)cc1OCC1CCCCC1` [Example 158, (2E)-3-[2-(cyclohexylmethoxy)-4-(2-methoxyethoxy)phenyl]-N-(pentylsulfonyl)acrylamide] had a melting point of 97.5 to 98.3 °C.
With `CCCCOC(=O)NS(=O)(=O)/C=C/c1cc(OCCCC)nn1Cc1ccc(Cl)cc1Cl` [Example 130, butyl ({(E)-2-[3-butoxy-1-(2,4-dichlorobenzyl)-1H-pyrazol-5-yl]vinyl}sulfonyl)carbamate] the figure was 137 to 138 °C; with `CCOC(=O)COc1ccc(CCCOC(=O)NCC2CC2)c(Oc2ncc(C(F)(F)F)cc2Cl)c1` [Example 53, ethyl {3-{[3-chloro-5-(trifluoromethyl)-pyridin-2-yl]oxy}-4-[3-({[(cyclopropylmethyl)amino]carbonyl}-oxy)propyl]phenoxy}acetate], 112.8 to 113 °C.
`CCCCCS(=O)(=O)NC(=O)CCCc1ccc(OCCOC)cc1Oc1ncc(C(F)(F)F)cc1Cl` [Example 74, 4-[2-{[3-chloro-5-(trifluoromethyl)pyridin-2-yl]oxy}-4-(2-methoxyethoxy)phenyl]-N-(pentylsulfonyl)butanamide]: the melting point was in the range of 96 to 97 °C.
`CCCCCS(=O)(=O)NC(=O)CC(C)c1ccc(OCCOC)cc1Oc1ncc(C(F)(F)F)cc1Cl` (stereo not shown) [Example 77, 3-[2-{[3-chloro-5-(trifluoromethyl)pyridin-2-yl]oxy}-4-(2-methoxyethoxy)phenyl]-N-(pentylsulfonyl)butanamide] returned a melting point of 136.9 to 137.1 °C.
The figure for `CCCCCS(=O)(=O)NC(=O)/C=C/c1ccc(OCCOC)cc1NC(=O)c1ccc(Cl)cc1Cl` [Example 189, 2,4-dichloro-N-(5-(2-methoxyethoxy)-2-{(1E)-3-oxo-3-[(pentylsulfonyl)amino]prop-1-en-1-yl}phenyl)benzamide] is 176.8 to 177.1 °C.
The figure for `COCCCOc1ccc(CCCOC(=O)NS(=O)(=O)NCCOC(C)C)c(Oc2ncc(C(F)(F)F)cc2Cl)c1` [Example 474, 3-[2-{[3-chloro-5-(trifluoromethyl)pyridin-2-yl]oxy}-4-(3-methoxypropoxy)phenyl]propyl {[(2-isopropoxyethyl)amino]sulfonyl}carbamate] is 67.4 to 68 °C.
The figure for `COCCCS(=O)(=O)NC(=O)/C=C/c1cc(OC(C)C)nn1Cc1ccc(C(F)(F)F)cc1Cl` [Example 115, (2E)-3-{1-[2-chloro-4-(trifluoromethyl)benzyl]-3-isopropoxy-1H-pyrazol-5-yl}-N-[(3-methoxypropyl)sulfonyl]acrylamide] is 138 to 139 °C; for `CCCCOc1cc(CCS(=O)(=O)NC(=O)OC(C)C)n(Cc2ccc(Cl)cc2Cl)n1` [Example 139, isopropyl ({2-[3-butoxy-1-(2,4-dichlorobenzyl)-1H-pyrazol-5-yl]ethyl}sulfonyl)carbamate] it is 120 to 121 °C.
Compound `COCCCNS(=O)(=O)NC(=O)OC/C=C/c1ccc(OCCOC)cc1Oc1ncc(C(F)(F)F)cc1Cl` [Example 432, (2E)-3-[2-{[3-chloro-5-(trifluoromethyl)pyridin-2-yl]oxy}-4-(2-methoxyethoxy)phenyl]prop-2-en-1-yl {[(3-methoxypropyl)amino]sulfonyl}carbamate] showed a melting point of 98 to 100 °C.
With `CCCCCS(=O)(=O)NCC(C)Cc1ccc(OCCOC)cc1Oc1ncc(C(F)(F)F)cc1Cl` (stereo not shown) [Example 41, N-{3-[2-{[3-chloro-5-(trifluoromethyl)pyridin-2-yl]oxy}-4-(2-methoxyethoxy)phenyl]-2-methylpropyl}pentane-1-sulfonamide] the figure was 80 to 82 °C; with `CCN(CC)C(=O)COc1ccc(CCCOC(=O)NCC2CC2)c(Oc2ncc(C(F)(F)F)cc2Cl)c1` [Example 52, 3-{2-{[3-chloro-5-(trifluoromethyl)pyridin-2-yl]oxy}-4-[2-(diethylamino)-2-oxoethoxy]phenyl}propyl (cyclopropylmethyl)carbamate], 94 to 94.5 °C.
Regarding `CCCCCOC(=O)NS(=O)(=O)CCc1cc(OCCCC)nn1Cc1ccc(Cl)cc1Cl` [Example 135, pentyl ({2-[3-butoxy-1-(2,4-dichlorobenzyl)-1H-pyrazol-5-yl]ethyl}sulfonyl)carbamate], the melting point fell in the range of 91 to 93 °C.
With `COCCOc1ccc(COC(=O)NS(=O)(=O)NCC(C)C)c(Oc2ncc(C(F)(F)F)cc2Cl)c1` [Example 60, 2-{[3-chloro-5-(trifluoromethyl)pyridin-2-yl]oxy}-4-(2-methoxyethoxy)benzyl [(isobutylamino)sulfonyl]carbamate] the figure was 160 to 161 °C; with `CCCCCS(=O)(=O)NC(=O)CCc1ccc(OCCOC)cc1Oc1ccccc1` [Example 219, 3-[4-(2-methoxyethoxy)-2-phenoxyphenyl]-N-(pentylsulfonyl)propanamide], 70.4 to 70.5 °C.
With `CCCCCS(=O)(=O)NC(=O)CCCCc1cc(OCCCC)nn1Cc1ccc(Cl)cc1Cl` [Example 147, 5-[3-butoxy-1-(2,4-dichlorobenzyl)-1H-pyrazol-5-yl]-N-(pentylsulfonyl)pentanamide] the figure was 91 to 93 °C.
For `CCCCCS(=O)(=O)NC(=O)/C=C/c1ccc(OCCOC(C)=O)cc1Oc1ncc(C(F)(F)F)cc1Cl` [Example 194, 2-(3-{[3-chloro-5-(trifluoromethyl)pyridin-2-yl]oxy}-4-{(1E)-3-oxo-3-[(pentylsulfonyl)amino]prop-1-en-1-yl}phenoxy)ethyl acetate], the melting point fell in the range of 141 to 144 °C.
With `CCCCCS(=O)(=O)NC(=O)OCc1cc(OC(C)C)nn1Cc1ccc(Cl)cc1Cl` [Example 142, [1-(2,4-dichlorobenzyl)-3-isopropoxy-1H-pyrazol-5-yl]methyl (pentylsulfonyl)carbamate] the figure was 126 to 128 °C; with `CCOC(=O)c1cnc(Oc2cc(OCCOC)ccc2CCCOC(=O)NCC2CC2)c(Cl)c1` [Example 465, ethyl 5-chloro-6-[2-[3-({[(cyclopropylmethyl)amino]carbonyl}oxy)propyl]-5-(2-methoxyethoxy)phenoxy]nicotinate], 94.6 to 94.8 °C.
